The results in this text go back to patent US20060040884A1, “Antisense oligonucleotides directed to genes regulated by trapoxin-induced HDAC inhibition” (priority 2001, published 2006).

Strand notation (5' to 3'): a small letter for the sugar, then the base; units joined by * are phosphorothioate-linked, units joined directly phosphodiester-linked; [ ] holds rarer units or linkages, { } end groups; capitals alone tell only the bases. e = 2'-O-(2-methoxyethyl) (MOE); [5mC] = 5-methylcytosine; d = 2'-deoxy (DNA)

One series relates to RhoB. Briefly: RhoB expression in H1299 cells transfected with antisense oligonucleotides (Western blot). To be noted: 400 nM oligonucleotide with LIPOFECTIN, harvested 72 h after first transfection. It counts as cell-based, human. How it is done: (§1) H1299 cells are transfected with HDAC1 antisense oligonucleotides NAS 6887, HDAC1 mismatch oligonucleotide NAS 7618, luciferase antisense oligonucleotide NAS 5596, or mock transfected. The following are the sequences of the modified oligonucleotides:
modified such that “s” stands for phosphorothioate, upper case refers to 2′-H, lower case refers to 2′-O-methoxyethyl and “c” refers to 2′-methoxyethyl 5-methylcytidine. Transfection is performed using LIPOFECTIN (Life Technologies) as a carrier according to the manufacturer's instruction. The transfection mixture is prepared in OPTI-MEM (Life Technologies) containing 6 μl LIPOFECTIN per 400 nM oligonucleotide. Transfection is carried out for 4 h, and is repeated twice on two consecutive days. Cells are harvested 72 h after the first transfection. RNA and proteins are isolated using Trizol reagent (Life Technologies) according to the manufacturer's instruction. Traces of DNA are removed from RNA samples using DNA-free (Ambion, Austin, Tex.) according to the manufacturer's protocol. RNA concentration is measured on CytoFluor Multi-well plate reader (PerSeptive Biosystems, Framingham, Mass.) using RIBO GREEN RNA Quantification kit (Molecular Probes, Eugene, Oreg.). Real Time RT-PCR
To determine the effect of specific HDAC1 blockade on RhoB expression, antisense oligonucleotides against HDAC1 were used. Potent antisense oligonucleotides against HDAC1 as well as oligonucleotides with mismatched nucleotides were synthesized and transfected into H1299 cells as specifically disclosed herein and as described in Examples 6-9. […] RNA and protein were isolated from H1299 cells transfected with the HDAC1 antisense oligonucleotides (NAS 6887), the corresponding mismatch (NAS 7618) and the unrelated luciferase control oligonucleotide (NAS 5596), and were analysed by real time RT-PCR and Western blot for HDAC1 and RhoB expression level. […] In contrast, no effects on RhoB expression were found in cells transfected with the NAS 7618 and NAS 5596 oligonucleotides.

The test system of the next series is HDAC1. Kind of series: HDAC1 expression in H1299 cells transfected with antisense oligonucleotides (real time RT-PCR, Western blot). It counts as cell-based, human. Here is the method: as §1
modified such that “s” stands for phosphorothioate, upper case refers to 2′-H, lower case refers to 2′-O-methoxyethyl and “c” refers to 2′-methoxyethyl 5-methylcytidine. Transfection is performed using LIPOFECTIN (Life Technologies) as a carrier according to the manufacturer's instruction. The transfection mixture is prepared in OPTI-MEM (Life Technologies) containing 6 μl LIPOFECTIN per 400 nM oligonucleotide. Transfection is carried out for 4 h, and is repeated twice on two consecutive days. […] RNA concentration is measured on CytoFluor Multi-well plate reader (PerSeptive Biosystems, Framingham, Mass.) using RIBO GREEN RNA Quantification kit (Molecular Probes, Eugene, Oreg.). […]
To determine the effect of specific HDAC1 blockade on RhoB expression, antisense oligonucleotides against HDAC1 were used. […] RNA and protein were isolated from H1299 cells transfected with the HDAC1 antisense oligonucleotides (NAS 6887), the corresponding mismatch (NAS 7618) and the unrelated luciferase control oligonucleotide (NAS 5596), and were analysed by real time RT-PCR and Western blot for HDAC1 and RhoB expression level. […]
On the technique in general: Quantitative PCR measures a nucleic acid by following its amplification.

As to “NAS 5596: luciferase antisense control oligonucleotide, SEQ ID NO 14: cct taCs CsTsGs CsTsAs Gsct ggc (antisense CCTTACCTGCTAGCTGGC; phosphorothioate modifications, chemistry not fully specified)”, the “RhoB expression (protein level)” value with RhoB is given as “no effects”. In the case of “NAS 6887: HDAC1 antisense oligonucleotide, SEQ ID NO 12: gct gtAs CsTsCs CsGsAs Csat gtt (antisense eGe[5mC]eTeGeTdA*dC*dT*dC*dC*dG*dA*dC*eAeTeGeTeT)”, in the series on HDAC1 (H1299 cells, 400 nM oligonucleotide with LIPOFECTIN, harvested 72 h after first transfection), the “Expression of HDAC1 (real time RT-PCR and Western blot)” value was “efficiently blocked”. Further, the “Inhibition of HDAC1 mRNA level” value in the series with HDAC1 (transfected H1299 cells) is listed as “very potent inhibition”. Also, the “RhoB expression (protein level)” value with RhoB was “significantly induced”.

As for “NAS 7618: HDAC1 mismatch oligonucleotide, SEQ ID NO 13: gct ttAs CsGsCs CsTsAs Csag gtt (antisense GCTTTACGCCTACAGGTT; phosphorothioate modifications, chemistry not fully specified)”, the “RhoB expression (protein level)” value in the series with RhoB is “no effects”.
